Experimental data taken from PMC4529246 (PLoS ONE, 2015).
Where two headings read alike, the source gives them in different places.

Tests used:
Assay in all cases: cell-based
system xc- (IMR90) [1] = biological target: T1, system xc- (IMR90) (Homo sapiens, UniProt Q9UPY5); parameters: species or system IMR-90; cystine-induced glutamate release inhibition, 30 min, PBS with Na+; conditions: PBS (+Na+), 30 min; read-out: Glutamate Release IMR90
T1 construct: gene SLC7A11; native endogenous transporter in intact IMR-90 fibroblasts
T1 sequence (Q9UPY5 1-501): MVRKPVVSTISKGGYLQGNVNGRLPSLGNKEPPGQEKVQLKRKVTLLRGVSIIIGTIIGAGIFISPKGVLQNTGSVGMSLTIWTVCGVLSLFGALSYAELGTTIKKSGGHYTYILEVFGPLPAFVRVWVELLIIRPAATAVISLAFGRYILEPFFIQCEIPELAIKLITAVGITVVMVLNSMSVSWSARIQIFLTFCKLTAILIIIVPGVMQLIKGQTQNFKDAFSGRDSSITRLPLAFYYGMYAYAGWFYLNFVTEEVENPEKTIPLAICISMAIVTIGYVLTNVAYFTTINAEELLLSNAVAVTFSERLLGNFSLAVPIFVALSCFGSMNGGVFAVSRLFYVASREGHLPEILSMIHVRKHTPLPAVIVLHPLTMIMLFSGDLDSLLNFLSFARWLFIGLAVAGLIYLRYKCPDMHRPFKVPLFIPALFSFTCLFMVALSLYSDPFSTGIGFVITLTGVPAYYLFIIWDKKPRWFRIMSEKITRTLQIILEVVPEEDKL
T1 sequence (P08195 1-529 partner): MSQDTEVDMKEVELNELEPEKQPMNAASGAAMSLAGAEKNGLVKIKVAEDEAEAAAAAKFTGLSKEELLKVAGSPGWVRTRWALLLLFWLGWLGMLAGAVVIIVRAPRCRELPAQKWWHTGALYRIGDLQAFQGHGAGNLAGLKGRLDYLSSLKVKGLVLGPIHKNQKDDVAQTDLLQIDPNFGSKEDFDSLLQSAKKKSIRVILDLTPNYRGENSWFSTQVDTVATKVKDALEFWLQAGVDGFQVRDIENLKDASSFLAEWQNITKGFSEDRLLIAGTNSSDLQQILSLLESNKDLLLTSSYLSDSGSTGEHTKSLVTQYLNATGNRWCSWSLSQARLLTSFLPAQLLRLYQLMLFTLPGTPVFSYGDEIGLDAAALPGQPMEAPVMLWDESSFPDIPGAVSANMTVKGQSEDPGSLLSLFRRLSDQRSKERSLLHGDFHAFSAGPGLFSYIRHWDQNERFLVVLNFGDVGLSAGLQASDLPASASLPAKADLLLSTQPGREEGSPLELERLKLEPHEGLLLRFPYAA
Method: Early characterization of the cystine-induced glutamate release assay was carried out in the 96-well format and later adapted to the 384-well format. Briefly, CCF-STTG-1 cells were seeded at 0.04 x 10^6 cells per 96-well and grown to confluence. […] Cells were maintained for 2h at 37°C in an incubator with 5% CO2. At the end of the incubation period, cystine-induced glutamate release was measured directly. The assay was further characterized for the dependence of cystine-induced glutamate release on protein content (mg/ml) and the time of incubation. […] Cells were maintained at 37°C in an incubator with 5% CO2 and the glutamate released over a 2h period measured. Identical protocols were followed for IC50 determinations using UB or PBS with CCF-STTG-1, neuroglioma (H4) or fibroblast (IMR-90) cells. U-87 MG cells were seeded at 0.06 x 10^6 cells per 96-well (in 0.3 ml growth media) and tested on Day2. When running the assay in the 384-well format, CCF-STTG-1 cells were seeded at 0.01 x 10^6 cells per well (in 0.025 ml growth media) and grown to confluence. […] Cells were maintained for 3h at 37°C in an incubator with 5% CO2. At the end of the incubation period, cystine-induced glutamate release was measured directly. The rates of [^14C]-cystine influx and cystine-induced glutamate efflux were closely examined using CCF-STTG-1 (grade IV astrocytoma) cells in order to understand the reasons for the lower IC50 values and longer time-dependence in the cystine-induced glutamate release assay. […] The experiments were repeated also using IMR-90 fibroblast cells derived from normal embryonic lung and a second cancer line, the H4 neuroglioma cells. […] (DOCX) Click here for additional data file.

system xc- (H4) [2] = biological target: T2, system xc- (H4) (Homo sapiens, UniProt Q9UPY5); parameters: cystine-induced glutamate release inhibition, 30 min, PBS with Na+; conditions: PBS (+Na+), 30 min; read-out: Glutamate Release H4
T2 construct: gene SLC7A11; native endogenous transporter in intact H4 neuroglioma cells
T2 sequence (Q9UPY5 1-501): T1 sequence (Q9UPY5 1-501)
T2 sequence (P08195 1-529 partner): T1 sequence (P08195 1-529 partner)
Method: Early characterization of the cystine-induced glutamate release assay was carried out in the 96-well format and later adapted to the 384-well format. Briefly, CCF-STTG-1 cells were seeded at 0.04 x 10^6 cells per 96-well and grown to confluence. […] Cells were maintained for 2h at 37°C in an incubator with 5% CO2. At the end of the incubation period, cystine-induced glutamate release was measured directly. The assay was further characterized for the dependence of cystine-induced glutamate release on protein content (mg/ml) and the time of incubation. […] Cells were maintained at 37°C in an incubator with 5% CO2 and the glutamate released over a 2h period measured. Identical protocols were followed for IC50 determinations using UB or PBS with CCF-STTG-1, neuroglioma (H4) or fibroblast (IMR-90) cells. U-87 MG cells were seeded at 0.06 x 10^6 cells per 96-well (in 0.3 ml growth media) and tested on Day2. When running the assay in the 384-well format, CCF-STTG-1 cells were seeded at 0.01 x 10^6 cells per well (in 0.025 ml growth media) and grown to confluence. […] Cells were maintained for 3h at 37°C in an incubator with 5% CO2. At the end of the incubation period, cystine-induced glutamate release was measured directly. […]

system xc- (H4) [3] = biological target: T2, system xc- (H4); parameters: [14C]-cystine uptake inhibition, 2 min, PBS with Na+, scintillation counting; conditions: PBS (+Na+), 2 min
Method: Early characterization work was carried out in a 12-well format and the assay later adapted and characterized in the 96-well format. Briefly, CCF-STTG-1 cells were seeded at 0.04 x 10^6 cells per well in 0.2 ml growth media and grown to confluence. […] After 15 min, uptake was terminated by three washes (115 μl/well) with ice-cold UB. Cells were then lysed with 0.1 N NaOH (100 μl/well) and the radioactivity in the cells measured using scintillant-coated 96-well plates (PerkinElmer: 6005630) and normalized to protein contents. The assay was further characterized for the dependence of ^14C-cystine uptake on protein content (mg/ml) and the time and temperature of incubation. To determine IC50 values, CCF-STTG-1 cells were similarly seeded and grown to confluence. On day 3, transport was initiated upon the addition of pre-warmed (37°C) [^14C]-cystine 80 μM (5.631 μCi/μmol) in Earle’s Balanced Salt Solution (EBSS, Sigma: E3024, contents in mM: NaCl 116.4, NaHCO3 26.2, NaH2PO4 1.02, KCl 5.36, MgSO4 0.81, CaCl2 1.8 and Glucose 5.56, pH 7.4) in the presence and absence of inhibitors. […]

system xc- (IMR90) [4] = biological target: T1, system xc- (IMR90); parameters: species or system IMR-90; [14C]-cystine uptake inhibition, 2 min, PBS with Na+, scintillation counting; conditions: PBS (+Na+), 2 min
Method: Early characterization work was carried out in a 12-well format and the assay later adapted and characterized in the 96-well format. Briefly, CCF-STTG-1 cells were seeded at 0.04 x 10^6 cells per well in 0.2 ml growth media and grown to confluence. […] Cells were then lysed with 0.1 N NaOH (100 μl/well) and the radioactivity in the cells measured using scintillant-coated 96-well plates (PerkinElmer: 6005630) and normalized to protein contents. The assay was further characterized for the dependence of ^14C-cystine uptake on protein content (mg/ml) and the time and temperature of incubation. To determine IC50 values, CCF-STTG-1 cells were similarly seeded and grown to confluence. On day 3, transport was initiated upon the addition of pre-warmed (37°C) [^14C]-cystine 80 μM ([…], Sigma: E3024, contents in mM: NaCl 116.4, NaHCO3 26.2, NaH2PO4 1.02, KCl 5.36, MgSO4 0.81, CaCl2 1.8 and Glucose 5.56, pH 7.4) in the presence and absence of inhibitors. […] Identical protocols were followed for IC50 determinations using UB or phosphate buffered saline (PBS; contents in mM: S1 Table) with […] The rates of [^14C]-cystine influx and cystine-induced glutamate efflux were closely examined using CCF-STTG-1 (grade IV astrocytoma) cells in order to understand the reasons for the lower IC50 values and longer time-dependence in the cystine-induced glutamate release assay. […]

Q: `N[C@@H](C(=O)O)c1ccc(C(=O)O)cc1` [(R)-4CPG] was tested. Which IC50 (system xc- (IMR90) [1]) did it give?
A: > 100 µM

Q: And the IC50 (system xc- (H4) [2])?
A: > 100 µM

Q: What does the source list for `N[C@H](C(=O)O)c1ccc(C(=O)O)cc1` [(S)-4CPG]?
A: IC50 (system xc- (IMR90) [1]): 2 ± 0.4 µM; IC50 (system xc- (H4) [3]): 20 ± 0.4 µM

Q: For `O=C(O)c1cc(/N=N/c2ccc(S(=O)(=O)Nc3ccccn3)cc2)ccc1O` [SAS], which IC50 (system xc- (IMR90) [1]) is on record?
A: 3 ± 0.2 µM

Q: What does the source list for `N[C@@H](CCC(=O)O)C(=O)O` [glutamate]?
A: IC50 (system xc- (IMR90) [4]): 200 ± 3 µM; IC50 (system xc- (H4) [3]): 200 ± 20 µM
